Assay results from US20220389061A1, “IMMUNOMODULATORS” (priority 2019, published 2022).
Starred links: 1 amine or outer side, 2 acyl side, 3 side chain; linkers in the order of their positions; H or OH if unused. Positions of bridges follow the written chain, without caps; N, C: chain ends. Non-standard residues stand in square brackets, D forms with d. Residues, ends and D or L forms follow the SMILES beside them. Groups on a side chain read outwards from the residue. *: point of attachment. Trp(1-CH2COOH) = N[C@@H](Cc1cn(CC(=O)O)c2ccccc12)C(=O)O; X73 = FC(F)(F)c1cc(NC(=S)*)cc(C(F)(F)F)c1; X63 = COc1cc([N+](=O)[O-])ccc1NC(=S)*; NH(1-naphthyl) = c1ccc2c(N*)cccc2c1; X13 = O=[N+]([O-])c1ccc(NC(=S)*)cc1; Hyp = O=C(O)[C@@H]1C[C@@H](O)CN1; X25 = FC(F)(F)Oc1ccc(NC(=S)*)cc1; X33 = Cc1cc2ccc(NC(=S)*)cc2[nH]1; X94 = S=C(Nc1ccc(N2CCOCC2)nc1)*; X87 = FC(F)(F)c1ccccc1NC(=S)*; NMeNle = CCCC[C@H](NC)C(=O)O; X64 = COc1cc(OC)c(N*)cc1Cl; NMeA = CN[C@@H](C)C(=O)O; Dab = NCC[C@H](N)C(=O)O; Dap = NC[C@H](N)C(=O)O; CO = O=C([*:1])[*:2]

molecular target: T1, PD-1/PD-L1 (Homo sapiens, UniProt Q9NZQ7); test: PD-1/PD-L1 Homogenous Time-Resolved Fluorescence (HTRF) binding assay; conditions: not given
T1 construct: TVMV protease site linker (C); made in house; host or cells: HEK293T cells
T1 sequence (Q9NZQ7 18-239): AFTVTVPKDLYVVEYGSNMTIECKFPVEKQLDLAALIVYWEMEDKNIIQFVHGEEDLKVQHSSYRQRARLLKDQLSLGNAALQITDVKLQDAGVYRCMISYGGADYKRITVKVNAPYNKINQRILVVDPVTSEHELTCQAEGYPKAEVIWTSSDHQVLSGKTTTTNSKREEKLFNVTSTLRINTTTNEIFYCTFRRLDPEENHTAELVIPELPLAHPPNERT
How it was run: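 HTRF read-out using europium cryptate anti-Ig (1 nM) and APC anti-His (20 nM) on extracellular-domain fusion proteins in dPBS/0.1% BSA/0.05% Tween-20. Inhibitor first incubated 15 min with 10 nM PD-L1-His, followed by 20 nM PD-1-Ig for another 15 min.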

Row | SMILES | IC50 [nM]
1 | CCCC[C@H]1C(=O)N(C)[C@@H](CCCC)C(=O)N[C@@H](CC(C)C)C(=O)N[C@H](C(=O)NCC(N)=O)CSCC(=O)N[C@@H](Cc2ccc(O)cc2)C(=O)N(C)[C@@H](C)C(=O)N[C@@H](CC(N)=O)C(=O)N2CCC[C@H]2C(=O)N[C@@H](CNC(=S)Nc2ccc([N+](=O)[O-])cc2OC)C(=O)N[C@@H](CC(C)C)C(=O)N2C[C@H](O)C[C@H]2C(=O)N[C@@H](Cc2c[nH]c3ccccc23)C(=O)N[C@@H](CCNC(=S)Nc2ccc([N+](=O)[O-])cc2OC)C(=O)N[C@@H](Cc2cn(CC(=O)O)c3ccccc23)C(=O)N1C [Example 1104] ({CH2CO}-Y[NMeA]NP[Dap](X63)L[Hyp]W[Dab](X63)[Trp(1-CH2COOH)][NMeNle][NMeNle]LCG-NH2; thioether N-14) | 12
2 | CCCC[C@H]1C(=O)N(C)[C@@H](CCCC)C(=O)N[C@@H](CC(C)C)C(=O)N[C@H](C(=O)NCC(N)=O)CSCC(=O)N[C@@H](Cc2ccc(O)cc2)C(=O)N(C)[C@@H](C)C(=O)N[C@@H](CC(N)=O)C(=O)N2CCC[C@H]2C(=O)N[C@@H](CNC(=O)Nc2cccc3ccccc23)C(=O)N[C@@H](CC(C)C)C(=O)N2C[C@H](O)C[C@H]2C(=O)N[C@@H](Cc2c[nH]c3ccccc23)C(=O)N[C@@H](CCNC(=O)Nc2cccc3ccccc23)C(=O)N[C@@H](Cc2cn(CC(=O)O)c3ccccc23)C(=O)N1C [Example 3005] ({CH2CO}-Y[NMeA]NP[Dap]([CO-NH(1-naphthyl)])L[Hyp]W[Dab]([CO-NH(1-naphthyl)])[Trp(1-CH2COOH)][NMeNle][NMeNle]LCG-NH2; thioether N-14) | 3.2
3 | CCCC[C@H]1C(=O)N(C)[C@@H](CCCC)C(=O)N[C@@H](CC(C)C)C(=O)N[C@H](C(=O)NCC(N)=O)CSCC(=O)N[C@@H](Cc2ccc(O)cc2)C(=O)N(C)[C@@H](C)C(=O)N[C@@H](CC(N)=O)C(=O)N2CCC[C@H]2C(=O)N[C@@H](CNC(=S)Nc2ccc([N+](=O)[O-])cc2)C(=O)N[C@@H](CC(C)C)C(=O)N2C[C@H](O)C[C@H]2C(=O)N[C@@H](Cc2c[nH]c3ccccc23)C(=O)N[C@@H](CCNC(=S)Nc2ccc([N+](=O)[O-])cc2)C(=O)N[C@@H](Cc2cn(CC(=O)O)c3ccccc23)C(=O)N1C [Example 1025] ({CH2CO}-Y[NMeA]NP[Dap](X13)L[Hyp]W[Dab](X13)[Trp(1-CH2COOH)][NMeNle][NMeNle]LCG-NH2; thioether N-14) | 0.8

same assay, conditions: PD-L1-His 10 nM pre-incubated with inhibitor, PD-1-Ig 20 nM; read-out: HTRF IC50

Row | IC50 [nM] | SMILES
4 | 3 | CCCC[C@H]1C(=O)N(C)[C@@H](CCCC)C(=O)N[C@@H](CC(C)C)C(=O)N[C@H](C(=O)NCC(N)=O)CSCC(=O)N[C@@H](Cc2ccc(O)cc2)C(=O)N(C)[C@@H](C)C(=O)N[C@@H](CC(N)=O)C(=O)N2CCC[C@H]2C(=O)N[C@@H](CNC(=S)Nc2ccccc2C(F)(F)F)C(=O)N[C@@H](CC(C)C)C(=O)N2C[C@H](O)C[C@H]2C(=O)N[C@@H](Cc2c[nH]c3ccccc23)C(=O)N[C@@H](CCNC(=S)Nc2ccccc2C(F)(F)F)C(=O)N[C@@H](Cc2cn(CC(=O)O)c3ccccc23)C(=O)N1C [Example 1016] ({CH2CO}-Y[NMeA]NP[Dap](X87)L[Hyp]W[Dab](X87)[Trp(1-CH2COOH)][NMeNle][NMeNle]LCG-NH2; thioether N-14)
5 | 2.7 | CCCC[C@H]1C(=O)N(C)[C@@H](CCCC)C(=O)N[C@@H](CC(C)C)C(=O)N[C@H](C(=O)NCC(N)=O)CSCC(=O)N[C@@H](Cc2ccc(O)cc2)C(=O)N(C)[C@@H](C)C(=O)N[C@@H](CC(N)=O)C(=O)N2CCC[C@H]2C(=O)N[C@@H](CNC(=O)Nc2cc(Cl)c(OC)cc2OC)C(=O)N[C@@H](CC(C)C)C(=O)N2C[C@H](O)C[C@H]2C(=O)N[C@@H](Cc2c[nH]c3ccccc23)C(=O)N[C@@H](CCN)C(=O)N[C@@H](Cc2cn(CC(=O)O)c3ccccc23)C(=O)N1C [Example 1067] ({CH2CO}-Y[NMeA]NP[Dap]([CO-X64])L[Hyp]W[Dab][Trp(1-CH2COOH)][NMeNle][NMeNle]LCG-NH2; thioether N-14)
6 | 7.1 | CCCC[C@H]1C(=O)N(C)[C@@H](CCCC)C(=O)N[C@@H](CC(C)C)C(=O)N[C@H](C(=O)NCC(N)=O)CSCC(=O)N[C@@H](Cc2ccc(O)cc2)C(=O)N(C)[C@@H](C)C(=O)N[C@@H](CC(N)=O)C(=O)N2CCC[C@H]2C(=O)N[C@@H](CNC(=S)Nc2ccc(OC(F)(F)F)cc2)C(=O)N[C@@H](CC(C)C)C(=O)N2C[C@H](O)C[C@H]2C(=O)N[C@@H](Cc2c[nH]c3ccccc23)C(=O)N[C@@H](CCNC(=S)Nc2ccc(OC(F)(F)F)cc2)C(=O)N[C@@H](Cc2cn(CC(=O)O)c3ccccc23)C(=O)N1C [Example 1010] ({CH2CO}-Y[NMeA]NP[Dap](X25)L[Hyp]W[Dab](X25)[Trp(1-CH2COOH)][NMeNle][NMeNle]LCG-NH2; thioether N-14)
7 | 3 | CCCC[C@H]1C(=O)N(C)[C@@H](CCCC)C(=O)N[C@@H](CC(C)C)C(=O)N[C@H](C(=O)NCC(N)=O)CSCC(=O)N[C@@H](Cc2ccc(O)cc2)C(=O)N(C)[C@@H](C)C(=O)N[C@@H](CC(N)=O)C(=O)N2CCC[C@H]2C(=O)N[C@@H](CNC(=S)Nc2ccc3cc(C)[nH]c3c2)C(=O)N[C@@H](CC(C)C)C(=O)N2C[C@H](O)C[C@H]2C(=O)N[C@@H](Cc2c[nH]c3ccccc23)C(=O)N[C@@H](CCN)C(=O)N[C@@H](Cc2cn(CC(=O)O)c3ccccc23)C(=O)N1C [Example 3048] ({CH2CO}-Y[NMeA]NP[Dap](X33)L[Hyp]W[Dab][Trp(1-CH2COOH)][NMeNle][NMeNle]LCG-NH2; thioether N-14)
8 | 4 | CCCC[C@H]1C(=O)N(C)[C@@H](CCCC)C(=O)N[C@@H](CC(C)C)C(=O)N[C@H](C(=O)NCC(N)=O)CSCC(=O)N[C@@H](Cc2ccc(O)cc2)C(=O)N(C)[C@@H](C)C(=O)N[C@@H](CC(N)=O)C(=O)N2CCC[C@H]2C(=O)N[C@@H](CNC(=S)Nc2ccc(N3CCOCC3)nc2)C(=O)N[C@@H](CC(C)C)C(=O)N2C[C@H](O)C[C@H]2C(=O)N[C@@H](Cc2c[nH]c3ccccc23)C(=O)N[C@@H](CCN)C(=O)N[C@@H](Cc2cn(CC(=O)O)c3ccccc23)C(=O)N1C [Example 1058] ({CH2CO}-Y[NMeA]NP[Dap](X94)L[Hyp]W[Dab][Trp(1-CH2COOH)][NMeNle][NMeNle]LCG-NH2; thioether N-14)
9 | 87 | CCCC[C@H]1C(=O)N(C)[C@@H](CCCC)C(=O)N[C@@H](CC(C)C)C(=O)N[C@H](C(=O)NCC(N)=O)CSCC(=O)N[C@@H](Cc2ccc(O)cc2)C(=O)N(C)[C@@H](C)C(=O)N[C@@H](CC(N)=O)C(=O)N2CCC[C@H]2C(=O)N[C@@H](CNC(=S)Nc2cc(C(F)(F)F)cc(C(F)(F)F)c2)C(=O)N[C@@H](CC(C)C)C(=O)N2C[C@H](O)C[C@H]2C(=O)N[C@@H](Cc2c[nH]c3ccccc23)C(=O)N[C@@H](CCNC(=S)Nc2cc(C(F)(F)F)cc(C(F)(F)F)c2)C(=O)N[C@@H](Cc2cn(CC(=O)O)c3ccccc23)C(=O)N1C [Example 1124] ({CH2CO}-Y[NMeA]NP[Dap](X73)L[Hyp]W[Dab](X73)[Trp(1-CH2COOH)][NMeNle][NMeNle]LCG-NH2; thioether N-14)
